Converted amounts (≈) assume the structure as drawn. Like-named read-outs stand apart in the source and are kept apart here.
What was measured:
Format in all cases: cell-based
[1] = tested on: Phytophthora capsici (Pc); assay: In vitro pathogen growth inhibition assay, Pc; conditions: 48 h
In short: (§1)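 Value reported is the compound concentration reaching ≥90% growth inhibition, from OD readings at 24 and 48 h after blank subtraction, confirmed visually. Inoculum was spores diluted in 17% V8 medium, except Rs, using 1.5 mm mycelial plugs in ¼ PDB; actual compound concentration corrected via OD600.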

Rhizoctonia solani (Rs) = assay: In vitro pathogen growth inhibition assay, Rs (mycelial plugs); conditions: Rhizoctonia solani, 48 h, mycelial plugs
In short: as §1

Septoria tritici (St) = assay: In vitro pathogen growth inhibition assay, St; conditions: Zymoseptoria tritici, 48 h
In short: as §1

[2] = tested on: Fusarium virguliforme (Fv); assay: In vitro pathogen growth inhibition assay, Fv
In short: as §1

Botrtyis cinerea (Bc) = assay: In vitro pathogen growth inhibition assay, Bc; conditions: 48 h
In short: as §1

[3] = tested on: Collectotrichum graminicola (Cg); assay: In vitro pathogen growth inhibition assay, Cg; conditions: 48 h
In short: as §1

Diplodia maydis (Dm) = assay: In vitro pathogen growth inhibition assay, Dm; conditions: Stenocarpella maydis, 48 h
In short: as §1

[4] = tested on: Fusarium moniliforme (Fm); assay: In vitro pathogen growth inhibition assay, Fm; conditions: Fusarium verticillioides
In short: as §1

[5] = ≥90% inhibition, 48 hours vs 2% DMSO control, read-out: Compound Concentration (ppm) sufficient for ≥90% inhibition of growth, Pc
[6] = ≥90% inhibition, 48 hours vs 2% DMSO control, read-out: Compound Concentration (ppm) sufficient for ≥90% inhibition of growth, Rs
[7] = ≥90% inhibition, 48 hours vs 2% DMSO control, read-out: Compound Concentration (ppm) sufficient for ≥90% inhibition of growth, St
[8] = ≥90% inhibition, 48 hours vs 2% DMSO control, read-out: Compound Concentration (ppm) sufficient for ≥90% inhibition of growth, Fv
[9] = ≥90% inhibition, 48 hours vs 2% DMSO control, read-out: Compound Concentration (ppm) sufficient for ≥90% inhibition of growth, Bc
[10] = ≥90% inhibition, 48 hours vs 2% DMSO control, read-out: Compound Concentration (ppm) sufficient for ≥90% inhibition of growth, Cg
[11] = ≥90% inhibition, 48 hours vs 2% DMSO control, read-out: Compound Concentration (ppm) sufficient for ≥90% inhibition of growth, Dm
[12] = ≥90% inhibition, 48 hours vs 2% DMSO control, read-out: Compound Concentration (ppm) sufficient for ≥90% inhibition of growth, Fm
[13] = ≥90% growth inhibition, 48 hours, vs 2% DMSO control, read-out: Compound Concentration (ppm) sufficient for ≥90% inhibition of Pc
[14] = ≥90% growth inhibition, 48 hours, vs 2% DMSO control, read-out: Compound Concentration (ppm) sufficient for ≥90% inhibition of Rs
[15] = ≥90% growth inhibition, 48 hours, vs 2% DMSO control, read-out: Compound Concentration (ppm) sufficient for ≥90% inhibition of St
[16] = ≥90% growth inhibition, 48 hours, vs 2% DMSO control, read-out: Compound Concentration (ppm) sufficient for ≥90% inhibition of Fv
[17] = ≥90% growth inhibition, 48 hours, vs 2% DMSO control, read-out: Compound Concentration (ppm) sufficient for ≥90% inhibition of Bc
[18] = ≥90% growth inhibition, 48 hours, vs 2% DMSO control, read-out: Compound Concentration (ppm) sufficient for ≥90% inhibition of Cg
[19] = ≥90% growth inhibition, 48 hours, vs 2% DMSO control, read-out: Compound Concentration (ppm) sufficient for ≥90% inhibition of Dm
[20] = ≥90% growth inhibition, 48 hours, vs 2% DMSO control, read-out: Compound Concentration (ppm) sufficient for ≥90% inhibition of Fm

Row | SMILES | IC90 [1, 5] [µg/mL] | IC90 (Rhizoctonia solani (Rs); [6]) [µg/mL] | IC90 (Septoria tritici (St); [7]) [µg/mL] | IC90 [2, 8] [µg/mL] | IC90 (Botrtyis cinerea (Bc); [9]) [µg/mL] | IC90 [3, 10] [µg/mL] | IC90 (Diplodia maydis (Dm); [11]) [µg/mL] | IC90 [4, 12] [µg/mL] | IC90 [1, 13] [µg/mL] | IC90 (Rhizoctonia solani (Rs); [14]) [µg/mL] | IC90 (Septoria tritici (St); [15]) [µg/mL] | IC90 [2, 16] [µg/mL] | IC90 (Botrtyis cinerea (Bc); [17]) [µg/mL] | IC90 [3, 18] [µg/mL] | IC90 (Diplodia maydis (Dm); [19]) [µg/mL] | IC90 [4, 20] [µg/mL]
1 | COc1ccc(F)cc1[C@H](Cn1c(=O)n(C(C)(C)C(=O)N2CC=CC2)c(=O)c2c(C)c(-n3nccn3)sc21)OC[C@@H](C)O [Compound I-081] | ≥ 50 | 0.4 (≈ 0.653 µM) | > 50 | 0.4 (≈ 0.653 µM) | 2 (≈ 3.26 µM) | 0.4 (≈ 0.653 µM) | 2 (≈ 3.26 µM) | 0.08 (≈ 0.131 µM) | – | – | – | – | – | – | – | –
2 | C=CCNC(=O)C(C)(C)n1c(=O)c2c(C)c(-n3nccn3)sc2n(C[C@H](OC2CCOCC2)c2cc(F)ccc2OC)c1=O [Compound I-079] | > 50 | 0.4 (≈ 0.638 µM) | > 50 | 0.4 (≈ 0.638 µM) | 2 (≈ 3.19 µM) | 2 (≈ 3.19 µM) | 2 (≈ 3.19 µM) | 0.08 (≈ 0.128 µM) | – | – | – | – | – | – | – | –
3 | COCCO[C@@H](Cn1c(=O)n(C(C)(C)C(=O)NC(C)C)c(=O)c2c(C)c(-n3nccn3)sc21)c1cc(F)ccc1C [Compound I-248] | – | – | – | – | – | – | – | – | > 50 | 10 (≈ 17 µM) | ≥ 10 | 0.4 (≈ 0.682 µM) | 2 (≈ 3.41 µM) | 2 (≈ 3.41 µM) | ≥ 10 | 0.4 (≈ 0.682 µM)
4 | COc1ccc(F)cc1[C@H](Cn1c(=O)n(C(C)(C)C(=O)N2CCCC2)c(=O)c2c(C)c(-n3nccn3)sc21)OC1CCC(=O)CC1 [Compound I-051] | > 50 | 0.4 (≈ 0.613 µM) | > 50 | 0.4 (≈ 0.613 µM) | 0.4 (≈ 0.613 µM) | 0.4 (≈ 0.613 µM) | ≥ 0.4 | 0.08 (≈ 0.123 µM) | – | – | – | – | – | – | – | –
5 | CCc1ccc(F)cc1[C@H](Cn1c(=O)n(C(C)(C)C(=O)NC(C)C)c(=O)c2c(C)c(-n3nccn3)sc21)OCCOC [Compound I-247] | – | – | – | – | – | – | – | – | > 50 | 2 (≈ 3.33 µM) | ≥ 10 | 0.4 (≈ 0.666 µM) | 0.4 (≈ 0.666 µM) | 0.4 (≈ 0.666 µM) | 2 (≈ 3.33 µM) | 0.08 (≈ 0.133 µM)
6 | COc1ccccc1[C@H](Cn1c(=O)n(C(C)(C)C(=O)NC(C)C)c(=O)c2c(C)c(-n3cccn3)sc21)OCC(C)C [Compound I-119] | > 50 | 2 (≈ 3.44 µM) | > 50 | 10 (≈ 17.2 µM) | 2 (≈ 3.44 µM) | 10 (≈ 17.2 µM) | ≥ 2 | 0.4 (≈ 0.688 µM) | – | – | – | – | – | – | – | –
7 | CCNC(=O)C(C)(C)n1c(=O)c2c(C)c(-n3nccn3)sc2n(C[C@H](OC(C)C)c2cc(F)ccc2OC)c1=O [Compound I-019] | > 50 | 0.08 (≈ 0.14 µM) | > 10 | 0.4 (≈ 0.698 µM) | ≥ 0.4 | ≥ 0.4 | ≥ 0.4 | 0.08 (≈ 0.14 µM) | – | – | – | – | – | – | – | –

The remaining lines, values ahead:

Row | IC90 [1, 5] [µg/mL] | IC90 (Rhizoctonia solani (Rs); [6]) [µg/mL] | IC90 (Septoria tritici (St); [7]) [µg/mL] | IC90 [2, 8] [µg/mL] | IC90 (Botrtyis cinerea (Bc); [9]) [µg/mL] | IC90 [3, 10] [µg/mL] | IC90 (Diplodia maydis (Dm); [11]) [µg/mL] | IC90 [4, 12] [µg/mL] | IC90 [1, 13] [µg/mL] | IC90 (Rhizoctonia solani (Rs); [14]) [µg/mL] | IC90 (Septoria tritici (St); [15]) [µg/mL] | IC90 [2, 16] [µg/mL] | IC90 (Botrtyis cinerea (Bc); [17]) [µg/mL] | IC90 [3, 18] [µg/mL] | IC90 (Diplodia maydis (Dm); [19]) [µg/mL] | IC90 [4, 20] [µg/mL] | SMILES
8 | – | – | – | – | – | – | – | – | > 50 | 2 (≈ 3.78 µM) | > 50 | 2 (≈ 3.78 µM) | 2 (≈ 3.78 µM) | 2 (≈ 3.78 µM) | 10 (≈ 18.9 µM) | 2 (≈ 3.78 µM) | COc1ccc(F)cc1CCn1c(=O)n(C(C)(C)C(=O)NC(C)C)c(=O)c2c(C)c(-n3nccn3)sc21 [Compound I-296]
9 | – | – | – | – | – | – | – | – | 2 (≈ 3.48 µM) | 0.08 (≈ 0.139 µM) | > 50 | 0.4 (≈ 0.696 µM) | 0.4 (≈ 0.696 µM) | 0.08 (≈ 0.139 µM) | 0.4 (≈ 0.696 µM) | 0.08 (≈ 0.139 µM) | COc1ccc(F)cc1[C@@](O)(CO)Cn1c(=O)n(C(C)(C)C(=O)NC(C)C)c(=O)c2c(C)c(-n3nccn3)sc21 [Compound I-315]
10 | – | – | – | – | – | – | – | – | > 50 | > 50 | > 50 | > 50 | 10 (≈ 17.4 µM) | 10 (≈ 17.4 µM) | > 50 | 2 (≈ 3.48 µM) | CCNC(=O)[C@@H](C)n1c(=O)c2c(C)c(C(=O)OCC)sc2n(C[C@H](OCCC#N)c2cc(F)ccc2OC)c1=O [Compound I-297]

Reference: patent publication US10941157B2, “Pesticidal compositions and uses thereof” (Gilead Apollo, LLC, priority 2015, dated 2021)
